The values below come from PubChem BioAssay (NCI).

Molecules are shown by their SMILES. Several values for one entry are separate records, joined by “and”; a condition that tells them apart may be missing. Identical values can stand only once.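 In this assay, cells in 96-well plates receive the compound at five concentrations for 48 hours. Endpoints are linearly interpolated between the surrounding concentrations. Here, GI50 denotes the concentration required for 50% inhibition of growth. TGI is the concentration that stops growth completely.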

One assay has as its system HOP-92 NSCLC. The experiment in a line: NCI-60 cell line screen, 48 h.
As to `COc1cc(Nc2ccnc(N3CCN(c4ccnc5cc(Cl)ccc45)CC3)n2)cc(OC)c1`, the GI50 is 0.431 µM and the TGI was 6.61 µM.

In the case of `C/C(=N\O)c1ccc(Nc2cc(-n3nnc4ccccc43)nc3ccccc23)cc1`, the GI50 is 14.4 µM and the TGI came to 46.5 µM.

With `C[C@]12CC[C@@H]3c4ccc(O)c([N+](=O)[O-])c4CC[C@H]3[C@@H]1CC[C@@H]2NS(=O)(=O)c1ccc(C(F)(F)F)cc1`, the GI50 was 1.12 µM and the TGI came out at 2.62 µM.

Turning to `CC[C@H](C)[C@H](NC(=O)c1cnccn1)C(=O)N(C)[C@H](C[C@@H](OC(C)=O)c1nc(C(=O)N[C@@H](Cc2ccccc2)C[C@H](C)C(=O)OC)cs1)C(C)C`, the GI50 is 0.416 µM and the TGI is 11.4 µM.

`N#Cc1ccc(-c2nc(C#N)c(N)o2)cc1` came in with a TGI of more than 10 µM.

A further assay concerns RXF 393 renal. Description: NCI-60 cell line screen, 48 h.
As to `COc1cc(-c2csc(NC(=O)c3cc(C(F)(F)F)cc(C(F)(F)F)c3)n2)cc(OC)c1OC`, the GI50 is 1.96 µM and the TGI was 8.94 µM.

For `CC(C)=CCC12Cc3ccc(O)cc3C(C(C)CN1)C2C` (stereo not given), the TGI is more than 100 µM.

`CC[N+]1(C)CCC(O)(c2ccc(C)cc2)C(C(=O)c2ccc(C)cc2)C1` (stereo not given) gave a TGI of 84.9 µM.

As for `CC(=O)c1cccc(N(/C=C/C(=O)C(F)(F)F)CC(=O)c2ccc(Cl)cc2)c1`, the GI50 was more than 100 µM and the TGI was more than 100 µM.

As to `COc1ccc(Cl)cc1Nc1nc(C(F)(F)F)ccc1C(=O)NN`, the GI50 was 1.68 µM and the TGI was more than 21.4 µM.

Regarding `C#C[C@]1(O)CC[C@H]2[C@@H]3CC=C4c5nc(Nc6ccccn6)sc5CC[C@]4(C)[C@H]3CC[C@@]21C`, the GI50 was 0.218 µM and the TGI was 0.468 µM.

For the compound `CSc1ccc(C2=Nn3c(nnc3-c3ccc(F)c(Cl)c3)SC2)cc1`, the GI50 was 4.46 µM and the TGI was 19.4 µM.

In the case of `CNC(=O)Nc1ccc(-c2nc(N3CCOCC3)nc3c2cnn3C2CCOCC2)cc1`, the GI50 was 0.14 µM and the TGI amounted to 0.812 µM.

In turn, `NCCCCNCCCNC(=O)CNC(=O)CC(O)C(N)CCCC(NC(=O)C(CN)NC(=O)C(O)CNC(=O)CC(N)c1ccc(O)cc1)C(=O)O` (stereo not given) registered a TGI of more than 10 µM.

Consider `N/C(=N\OC(=O)c1ccccc1)C(C(=O)NOC(=O)c1ccccc1)C1CCCCC1` (stereo not given), for which the GI50 was 8.59 µM and the TGI was found to be 65.1 µM.

The compound `CCOc1ccc(N=Nc2ccc3cc(/C(C)=N/NC(=O)/C(C#N)=C\c4ccc(N(CCC#N)CCC#N)cc4)c(=O)oc3c2)cc1` gave a TGI of more than 10 µM.

As for `O=C(O)c1cc[c]([Hg][S]c2ncnc3nc[nH]c23)cc1`, the GI50 was 2.95 µM and the TGI came out at 18.8 µM.

For `CC(C)(C)OC(=O)NCC(C#N)CNC(=O)OC(C)(C)C`, the TGI is more than 100 µM.

As to `CN1CCCN(CCNc2nccc(-c3c(-c4cccc(O)c4)nc4sccn34)n2)S1(=O)=O`, the GI50 was 5.26 µM and 2.72 µM; the TGI was 31 µM and 21.6 µM.

The compound `CC(O)CNC1=CC(=O)C(=O)c2ccccc21` (stereo not given) had a TGI of more than 100 µM.

On to `CC1=C(C(=O)NC2CCCCC2)CC(C(=O)NC2CCCCC2)=C(C)N1`, for which the TGI is more than 100 µM.

Take `Cn1cc(C2=C(c3cn(C)c4ccc(N)cc34)C(=O)NC2=O)c2ccccc21`: the GI50 was 8.13 µM and the TGI was more than 25 µM.

Compound `CCCCN1C(=O)CC2[C@@H]3CCc4cc(OC)ccc4C3CC[C@]2(C)C1=O` (stereo not given in full) yielded a TGI of more than 10 µM.

As to `COc1cc(Nc2ccnc(N3CCN(c4ccnc5cc(Cl)ccc45)CC3)n2)cc(OC)c1`, the GI50 is 1.86 µM and the TGI was more than 100 µM.

`Cc1c(C)c2cc3c(=O)ccoc3c(C)c2oc1=O` came in with a TGI of more than 100 µM.

The compound `N#Cc1ccc(-c2nc(C#N)c(N)o2)cc1` registered a TGI of more than 10 µM.

In a further assay the test system is SK-MEL-2 melanoma. Description: NCI-60 cell line screen, 48 h.
For `COc1cc(-c2csc(NC(=O)c3cc(C(F)(F)F)cc(C(F)(F)F)c3)n2)cc(OC)c1OC`, the GI50 is 1.6 µM and the TGI was 4.81 µM.

For the compound `CC[N+]1(C)CCC(O)(c2ccc(C)cc2)C(C(=O)c2ccc(C)cc2)C1` (stereo not given), the TGI was more than 100 µM.

As for `CC(=O)c1cccc(N(/C=C/C(=O)C(F)(F)F)CC(=O)c2ccc(Cl)cc2)c1`, the GI50 was more than 100 µM and the TGI was more than 100 µM.

Consider `COc1ccc(Cl)cc1Nc1nc(C(F)(F)F)ccc1C(=O)NN`, for which the GI50 is 2.7 µM and the TGI is more than 100 µM.

Consider `C#C[C@]1(O)CC[C@H]2[C@@H]3CC=C4c5nc(Nc6ccccn6)sc5CC[C@]4(C)[C@H]3CC[C@@]21C`, for which the GI50 was 0.603 µM and the TGI worked out at 3.08 µM.

`CSc1ccc(C2=Nn3c(nnc3-c3ccc(F)c(Cl)c3)SC2)cc1`: the GI50 is 4.77 µM and the TGI was found to be 18 µM.

In the case of `CNC(=O)Nc1ccc(-c2nc(N3CCOCC3)nc3c2cnn3C2CCOCC2)cc1`, the GI50 was 0.382 µM and the TGI worked out at 3.56 µM.

The compound `O=c1oc2ccccc2c(O)c1C=NC(=S)c1ccncc1` had a TGI of more than 100 µM.

In the case of `NCCCCNCCCNC(=O)CNC(=O)CC(O)C(N)CCCC(NC(=O)C(CN)NC(=O)C(O)CNC(=O)CC(N)c1ccc(O)cc1)C(=O)O` (stereo not given), the TGI is more than 10 µM.

Regarding `N/C(=N\OC(=O)c1ccccc1)C(C(=O)NOC(=O)c1ccccc1)C1CCCCC1` (stereo not given), the GI50 was 12.5 µM and the TGI came out at 26.6 µM.

With `CCOc1ccc(N=Nc2ccc3cc(/C(C)=N/NC(=O)/C(C#N)=C\c4ccc(N(CCC#N)CCC#N)cc4)c(=O)oc3c2)cc1`, the TGI is more than 10 µM.

Turning to `O=C(O)c1cc[c]([Hg][S]c2ncnc3nc[nH]c23)cc1`, the GI50 was 4.83 µM and the TGI came out at 19.4 µM.

Take `CN1CCCN(CCNc2nccc(-c3c(-c4cccc(O)c4)nc4sccn34)n2)S1(=O)=O`: the GI50 was 2.37 µM and 2.15 µM; the TGI was 7.29 µM and 6.74 µM.

As to `CC(O)CNC1=CC(=O)C(=O)c2ccccc21` (stereo not given), the TGI turned out to be 32.9 µM.

As to `CC1=C(C(=O)NC2CCCCC2)CC(C(=O)NC2CCCCC2)=C(C)N1`, the TGI is more than 100 µM.
